According to patent US20240294489A1 (Captor Therapeutics S.A., priority 2020, published 2024):
Where two headings read alike, the source gives them in different places.

Tests used:
Assay type in all cases: cell-based
SALL4 [1] = biological target: T1, SALL4 (Homo sapiens, UniProt Q96SW2+Q9UJQ4); assay: SALL4 degradation assay, Kelly cell line (Western blot densitometry); details: Kelly cells, 100 nM, 24 h, average from n ≥ 2 experiments
T1 construct: SALL4 degradation in the Kelly cell line was investigated; endogenous in cells; host or cells: Kelly
T1 sequence (Q9UJQ4 whole entry): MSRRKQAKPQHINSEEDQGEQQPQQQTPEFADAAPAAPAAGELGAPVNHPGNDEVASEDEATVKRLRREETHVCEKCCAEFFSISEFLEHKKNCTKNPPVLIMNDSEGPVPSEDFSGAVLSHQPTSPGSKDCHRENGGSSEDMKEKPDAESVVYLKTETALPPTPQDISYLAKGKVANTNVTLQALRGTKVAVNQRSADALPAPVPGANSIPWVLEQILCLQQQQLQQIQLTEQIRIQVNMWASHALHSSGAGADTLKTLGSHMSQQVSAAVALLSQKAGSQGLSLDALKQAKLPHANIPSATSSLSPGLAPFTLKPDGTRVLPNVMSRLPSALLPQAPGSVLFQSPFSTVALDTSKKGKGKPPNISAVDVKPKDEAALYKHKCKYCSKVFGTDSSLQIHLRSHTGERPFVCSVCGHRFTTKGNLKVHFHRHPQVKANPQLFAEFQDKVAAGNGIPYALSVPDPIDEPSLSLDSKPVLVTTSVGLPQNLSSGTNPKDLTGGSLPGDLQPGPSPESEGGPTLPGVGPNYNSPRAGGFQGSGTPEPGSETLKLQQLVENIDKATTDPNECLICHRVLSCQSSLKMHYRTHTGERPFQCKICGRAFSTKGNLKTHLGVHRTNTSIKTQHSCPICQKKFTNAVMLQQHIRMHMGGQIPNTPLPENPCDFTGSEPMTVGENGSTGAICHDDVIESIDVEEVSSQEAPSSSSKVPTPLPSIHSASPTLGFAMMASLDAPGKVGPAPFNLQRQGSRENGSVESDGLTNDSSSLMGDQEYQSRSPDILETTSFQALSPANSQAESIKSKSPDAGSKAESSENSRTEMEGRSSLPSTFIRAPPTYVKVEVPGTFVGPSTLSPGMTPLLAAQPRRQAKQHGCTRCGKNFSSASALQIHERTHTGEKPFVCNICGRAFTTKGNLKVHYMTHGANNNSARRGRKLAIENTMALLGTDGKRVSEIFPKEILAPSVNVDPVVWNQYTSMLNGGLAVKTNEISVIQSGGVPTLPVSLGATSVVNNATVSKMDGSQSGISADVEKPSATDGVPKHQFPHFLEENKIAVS
T1 sequence (Q96SW2 whole entry): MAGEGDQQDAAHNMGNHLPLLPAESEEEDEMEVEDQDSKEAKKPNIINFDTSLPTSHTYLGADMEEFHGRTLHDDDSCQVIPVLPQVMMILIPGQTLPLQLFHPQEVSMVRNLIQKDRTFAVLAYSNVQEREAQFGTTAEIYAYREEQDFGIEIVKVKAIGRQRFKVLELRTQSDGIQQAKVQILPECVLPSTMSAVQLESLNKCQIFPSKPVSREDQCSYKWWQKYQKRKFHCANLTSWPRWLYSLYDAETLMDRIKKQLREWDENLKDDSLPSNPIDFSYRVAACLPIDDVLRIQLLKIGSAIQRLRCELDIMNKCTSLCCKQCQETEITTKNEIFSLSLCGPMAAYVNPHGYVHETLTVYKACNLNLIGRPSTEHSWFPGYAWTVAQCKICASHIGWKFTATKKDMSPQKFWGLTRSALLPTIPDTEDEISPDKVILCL
T1 sequence (Q16531 whole entry partner): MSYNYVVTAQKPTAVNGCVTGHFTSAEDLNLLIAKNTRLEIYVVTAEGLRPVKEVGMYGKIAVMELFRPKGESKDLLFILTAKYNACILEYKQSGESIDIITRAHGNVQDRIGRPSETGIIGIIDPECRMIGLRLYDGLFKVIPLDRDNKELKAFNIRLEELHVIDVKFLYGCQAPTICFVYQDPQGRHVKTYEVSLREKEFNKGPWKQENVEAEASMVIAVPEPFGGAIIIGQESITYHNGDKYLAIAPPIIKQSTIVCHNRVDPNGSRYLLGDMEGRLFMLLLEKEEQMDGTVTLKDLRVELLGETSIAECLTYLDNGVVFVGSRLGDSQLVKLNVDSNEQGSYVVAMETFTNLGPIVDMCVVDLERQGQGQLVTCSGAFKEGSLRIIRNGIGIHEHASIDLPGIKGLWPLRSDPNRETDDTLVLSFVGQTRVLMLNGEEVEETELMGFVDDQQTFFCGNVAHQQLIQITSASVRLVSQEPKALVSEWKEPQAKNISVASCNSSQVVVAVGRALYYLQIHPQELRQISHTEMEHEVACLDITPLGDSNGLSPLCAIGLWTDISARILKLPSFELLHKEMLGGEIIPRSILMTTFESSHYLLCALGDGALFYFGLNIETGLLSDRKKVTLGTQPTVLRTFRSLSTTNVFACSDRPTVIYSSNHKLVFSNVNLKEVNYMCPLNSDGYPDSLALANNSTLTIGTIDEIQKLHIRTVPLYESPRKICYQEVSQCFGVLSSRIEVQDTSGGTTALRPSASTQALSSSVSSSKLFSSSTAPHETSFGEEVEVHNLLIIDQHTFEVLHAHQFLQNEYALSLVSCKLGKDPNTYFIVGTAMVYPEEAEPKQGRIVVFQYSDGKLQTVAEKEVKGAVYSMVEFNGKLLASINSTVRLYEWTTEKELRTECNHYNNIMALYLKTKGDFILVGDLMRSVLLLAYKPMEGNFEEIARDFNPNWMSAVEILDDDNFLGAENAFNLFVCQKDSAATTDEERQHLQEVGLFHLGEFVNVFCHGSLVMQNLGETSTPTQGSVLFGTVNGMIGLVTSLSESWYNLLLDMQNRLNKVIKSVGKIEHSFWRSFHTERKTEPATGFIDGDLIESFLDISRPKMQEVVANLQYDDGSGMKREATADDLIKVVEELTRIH
Protocol: (§1) Cells were seeded on 6- or 12-well plates, and the compounds to be tested were added at the desired concentration range. […] After 24 h incubation (37° C., 5% CO2), cells were harvested, washed and cell lysates were prepared using RIPA lysis buffer. The amount of protein was determined via BCA assay, and the appropriate quantity was then loaded on the precast gel for the protein separation. After primary and secondary Ab staining, the membranes were washed and signals developed. The densitometry analysis was implemented to obtain the numeric values used later in the protein level evaluation process.

KG-1 cells = assay: Cell viability CTG assay, KG-1; details: Homo sapiens; KG-1, 72 h, 0.001-50 μM; read-out: KG-1 Geomean absolute IC50 by molecule, 72 H
Protocol: (§2) The effect of various compounds of the invention and various reference compounds on cell viability in various cell lines was investigated, using the Cell Viability—CTG Assay Protocol below. Hep3B, Kelly, H929, KG-1 and SNU-398 cells were maintained in respective cell medium (see Table 8, below). The cells were seeded on the 96-well or 384-white plates, and the compounds to be tested were added at the desired concentration range. Compounds are diluted in DMSO, and the DMSO concentration is kept constant at 0.25% v/v across the assay plate. After 72 h incubation (37° C., 5% CO2), CellTiter-Glo® Reagent (Promega/G7570) was added to the wells. Plates are shaken for 4 minutes and incubated for 8 minutes in the dark prior to reading luminescence (LU) by using the CLARIOstar Multimode Plate Reader. The signal is proportional to the amount of ATP, which is directly proportional to the number of cells present in the culture.
(§3) Luminescence (RLU) values were normalized to DMSO control. Dose response is assessed by non-linear regression and IC50 calculation with the average of technical duplicate of percentage inhibition. IC50 values are reported as absolute IC50 values, being the concentration of test compound at the intersection of the concentration-response curves with T/C=50%. For calculation of mean IC50 values the geometric mean is used.

Ikaros (IKZF1) = biological target: T2, Ikaros (IKZF1) (Homo sapiens, UniProt Q13422+Q96SW2); assay: Ikaros degradation assay, H929 cell line; details: H929 cells, 24 h
T2 construct: Ikaros degradation in the H929 cell line was investigated; endogenous in cells; host or cells: H929
T2 sequence (Q13422 whole entry): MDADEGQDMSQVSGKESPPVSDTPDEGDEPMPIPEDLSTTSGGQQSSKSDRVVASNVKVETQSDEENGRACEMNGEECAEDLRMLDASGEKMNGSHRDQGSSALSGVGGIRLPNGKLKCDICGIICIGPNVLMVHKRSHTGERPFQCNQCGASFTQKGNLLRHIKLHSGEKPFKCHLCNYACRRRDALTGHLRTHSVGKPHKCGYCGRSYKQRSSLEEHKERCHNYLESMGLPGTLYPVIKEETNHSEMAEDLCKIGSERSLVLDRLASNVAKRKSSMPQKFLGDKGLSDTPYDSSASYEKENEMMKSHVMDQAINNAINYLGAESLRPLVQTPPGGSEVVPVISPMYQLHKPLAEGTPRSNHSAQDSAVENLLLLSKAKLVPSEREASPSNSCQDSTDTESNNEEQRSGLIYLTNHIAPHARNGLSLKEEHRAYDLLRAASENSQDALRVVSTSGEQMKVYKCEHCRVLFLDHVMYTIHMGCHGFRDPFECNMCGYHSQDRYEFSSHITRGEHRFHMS
T2 sequence (Q96SW2 whole entry): as the sequence (Q96SW2 whole entry) above
T2 sequence (Q16531 whole entry partner): as the sequence (Q16531 whole entry partner) above
Protocol: as §1

Hep3B cells [2] = assay: Cell viability CTG assay, Hep3B; details: Homo sapiens, 72 h, 0.001-50 μM, read-out: Hep3B Geomean absolute IC50 by molecule, 72 H
Protocol: as §2, §3

Kelly cells [3] = assay: Cell viability CTG assay, Kelly; details: 72 h, 0.001-50 μM, read-out: Kelly Geomean absolute IC50 by molecule, 72 H
Protocol: as §2, §3

H929 cells = assay: Cell viability CTG assay, H929; set-up: key to Geomean absolute IC50 by molecule, 72 H: Inactive represents IC50 > 50 μM; C represents 50 μM ≥ IC50 > 5 μM; details: H929, 72 h, 0.001-50 μM; for IC50: Homo sapiens, NCI-H929, read-out: Geomean absolute IC50 by molecule, 72 H
Protocol: as §2, §3

GSPT1 = biological target: T3, GSPT1 (Homo sapiens, UniProt P15170+Q96SW2); assay: GSPT1 degradation assay, Hep3B cell line; details: HEP3B cells, 24 h, read-out: % of GSPT1 protein reduction
T3 construct: GSPT1 degradation in the Hep3B cell line was investigated; endogenous in cells; host or cells: Hep3B
T3 sequence (P15170 whole entry): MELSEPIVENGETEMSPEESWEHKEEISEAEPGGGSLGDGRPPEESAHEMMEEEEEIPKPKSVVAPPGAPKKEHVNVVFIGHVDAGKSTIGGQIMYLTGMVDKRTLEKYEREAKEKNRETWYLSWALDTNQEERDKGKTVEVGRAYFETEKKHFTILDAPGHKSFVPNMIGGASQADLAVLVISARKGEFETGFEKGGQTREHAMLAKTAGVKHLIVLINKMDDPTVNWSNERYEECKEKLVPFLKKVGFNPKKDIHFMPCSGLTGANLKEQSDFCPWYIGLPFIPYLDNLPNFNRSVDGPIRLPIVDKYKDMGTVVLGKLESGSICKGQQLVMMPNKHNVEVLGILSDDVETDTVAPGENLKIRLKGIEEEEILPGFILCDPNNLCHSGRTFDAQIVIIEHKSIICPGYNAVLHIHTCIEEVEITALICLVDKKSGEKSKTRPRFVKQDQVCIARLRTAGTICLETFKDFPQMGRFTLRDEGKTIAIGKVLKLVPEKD
T3 sequence (Q96SW2 whole entry): as the sequence (Q96SW2 whole entry) above
T3 sequence (Q16531 whole entry partner): as the sequence (Q16531 whole entry partner) above
Protocol: (§4) Hep3B cells were maintained in EMEM medium, supplemented with penicillin/streptomycin and 10% Fetal Bovine Serum (FBS). Cells were seeded on 6- or 12-well plates, and the compounds to be tested were added at the desired concentration range. Final DMSO concentration was 0.25%. After 24 h incubation (37° C., 5% CO2), cells were harvested, washed and cell lysates were prepared using RIPA lysis buffer. The amount of protein was determined via BCA assay, and the appropriate quantity was then loaded on the precast gel for the protein separation. After primary and secondary Ab staining, the membranes were washed and signals developed. The densitometry analysis was implemented to obtain the numeric values used later in the protein level evaluation process. Densitometry values were normalized to the loading control and calculated as [%] of the DMSO control.

SNU-398 cells = assay: Cell viability CTG assay, SNU-398; details: Homo sapiens; SNU-398, 72 h, 0.001-50 μM, FIG. 6C
Protocol: as §2, §3

Hep3B cells [4] = assay: Cell survival clonogenic assay, Hep3B; details: 0.1-10 μM, crystal violet staining after 9-10 days
Protocol: (§5) To determine the ability of a single cell to form a colony (defined as a cluster of at least 50 cells), Kelly and Hep3B cells were maintained in RPM11640 (Kelly) or EMEM (Hep3B) medium, supplemented with penicillin/streptomycin and 10% FBS. The cells were counted and seeded on the 6-well plates, at the density of 1×10^3 cells per well, the compounds to be tested were added at the desired concentration range, and the cells were cultured at 37° C./5% CO2. After colony formation (9-10 days), the cells were washed and treated with 6.0% glutaraldehyde and 0.5% crystal violet mix for 30 min., followed by rinsing with water and drying at room temperature (RT).

Kelly cells [5] = assay: Cell survival clonogenic assay, Kelly; details: 0.1-10 μM, crystal violet staining after 9-10 days
Protocol: as §5

Aiolos (IKZF3) = biological target: T4, Aiolos (IKZF3) (Homo sapiens, UniProt Q96SW2+Q9UKT9); assay: Aiolos degradation assay, H929 cell line; details: H929 cells, 20 μM, 24 h
T4 construct: Aiolos degradation in the H929 cell line was investigated; endogenous in cells; host or cells: H929
T4 sequence (Q9UKT9 whole entry): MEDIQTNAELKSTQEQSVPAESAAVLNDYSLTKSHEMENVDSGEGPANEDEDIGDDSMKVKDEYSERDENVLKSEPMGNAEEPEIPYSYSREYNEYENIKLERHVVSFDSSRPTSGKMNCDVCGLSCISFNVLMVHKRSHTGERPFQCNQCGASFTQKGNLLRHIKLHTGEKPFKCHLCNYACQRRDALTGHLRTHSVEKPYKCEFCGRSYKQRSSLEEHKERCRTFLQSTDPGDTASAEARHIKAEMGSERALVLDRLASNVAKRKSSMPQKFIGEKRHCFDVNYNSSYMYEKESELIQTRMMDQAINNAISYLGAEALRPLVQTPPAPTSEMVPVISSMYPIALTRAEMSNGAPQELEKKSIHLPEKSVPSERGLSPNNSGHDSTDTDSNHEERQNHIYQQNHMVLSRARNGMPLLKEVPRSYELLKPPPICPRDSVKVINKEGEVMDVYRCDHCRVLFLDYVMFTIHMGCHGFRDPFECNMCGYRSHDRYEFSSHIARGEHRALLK
T4 sequence (Q96SW2 whole entry): as the sequence (Q96SW2 whole entry) above
T4 sequence (Q16531 whole entry partner): as the sequence (Q16531 whole entry partner) above
Protocol: as §1

SALL4 [6] = biological target: T1, SALL4; assay: SALL4 degradation in the Kelly cell line, time course; details: Kelly cells, 0.1 μM, 3, 6, 12, 24, 48 and 72 h, FIG. 2
Protocol: as §4, with “Kelly” for “Hep3B”, “RPMI-1640” for “EMEM”, “After” for “After 24 h”, “CO2) for a specified period of time,” for “CO2),”, “process.” for “process. Densitometry values were normalized to the loading control and calculated as [%] of the DMSO control.”

[7] = NCI-H929, 10 uM, read-out: % of IKZF1 protein reduction

Compound | % of SALL4 protein reduction (SALL4 [1]) [%] | IC50 (KG-1 cells) [µM] | inhibition at 10 µM (Ikaros (IKZF1); [7]) [%] | IC50 (Hep3B cells [2]) [µM] | IC50 (Kelly cells [3]) [µM] | Geomean absolute IC50 by molecule, 72 H (H929 cells) | % of IKZF3 protein reduction (Aiolos (IKZF3)) | inhibition at 1 µM (GSPT1) [%] | other results
[2H]C([2H])(N)c1ccc2c(c1)CN(C1CCC(=O)NC1=O)C2=O (centres unmarked) [Compound 2, 3-(5-(aminomethyl-d2)-1-oxoisoindolin-2-yl)piperidine-2,6-dione] | >80 | 0.1 to 1 | 0 to 24 | ≤ 0.1 | 0.1 to 1 | – | – | – | IC50 (H929 cells): 5 to 50 µM; inhibition at 10 µM (GSPT1): 80 to 100%
NCc1cc2c(cc1F)C(=O)N(C1CCC(=O)NC1=O)C2 (centres unmarked) [Compound 3, 3-[5-(aminomethyl)-6-fluoro-1-oxo-2,3-dihydro-1H-isoindol-2-yl]piperidine-2,6-dione] | – | ≤ 0.1 | 0 to 24 | ≤ 0.1 | ≤ 0.1 | Inactive | – | – | IC50 (SNU-398 cells): 0.082 µM; inhibition at 10 µM (GSPT1): 80 to 100%
Nc1cccc2c1CN(C1CCC(=O)NC1=O)C2=O (centres unmarked) [Lenalidomide, lenalidomide, reference compound] | – | – | – | – | – | – | – | – | survival of the cells (colony formation) (Hep3B cells [4]): no activity; IC50 (H929 cells; numeric values): 0.433 µM; survival of the cells (colony formation) (Kelly cells [5]): no activity
N[C@@H](Cc1cnc[nH]1)C(=O)NCc1ccc2c(c1)CN([C@@H]1CCC(=O)NC1=O)C2=O [Compound 27, (S)-2-amino-N-((2-((R)-2,6-dioxopiperidin-3-yl)-1-oxoisoindolin-5-yl)methyl)-3-(1H-imidazol-4-yl)propanamide] | >80 | 0.1 to 1 | 0 to 24 | 0.1 to 1 | 0.1 to 1 | Inactive | C (C represents 0-24% of IKZF1 protein reduction) | 80 to 100 | –
N[C@@H](Cc1cnc[nH]1)C(=O)NCc1ccc2c(c1)CN([C@H]1CCC(=O)NC1=O)C2=O [Compound 28, (S)-2-amino-N-((2-((S)-2,6-dioxopiperidin-3-yl)-1-oxoisoindolin-5-yl)methyl)-3-(1H-imidazol-4-yl)propanamide] | – | 0.1 to 1 | 0 to 24 | 0.1 to 1 | 0.1 to 1 | Inactive | C (C represents 0-24% of IKZF1 protein reduction) | 80 to 100 | –
CCCCCC(=O)NCc1ccc2c(c1)CN(C1CCC(=O)NC1=O)C2=O (centres unmarked) [Compound 100, reference compound] | – | – | – | – | – | – | – | – | inhibition at 10 µM (Ikaros (IKZF1); NCI-H929, 10 uM, numeric values, read-out: % of IKZF1 protein reduction): 52%; % of IKZF3 protein reduction (Aiolos (IKZF3); numeric values): 52%
Nc1c(O)ccc2c1C(=O)N(C1CCC(=O)NC1=O)C2=O (centres unmarked) [Compound 44, 4-amino-2-(2,6-dioxopiperidin-3-yl)-5-hydroxyisoindoline-1,3-dione] | >80 | – | 0 to 24 | – | – | – | – | 50 to 79 | SALL4 degradation time course (SALL4 [6]): more rapidly and effectively than lenalidomide
Nc1cccc2c1C(=O)N(C1CCC(=O)NC1=O)C2=O (centres unmarked) [Pomalidomide, pomalidomide, reference compound] | – | – | – | – | – | – | – | – | % of IKZF1 protein reduction (Ikaros (IKZF1); 10 uM, numeric values): 86%; % of IKZF1 protein reduction (Ikaros (IKZF1); 20 uM, numeric values): 91%; % of IKZF3 protein reduction (Aiolos (IKZF3); numeric values): 87%; IC50 (H929 cells; numeric values): 0.061 µM
CC(C)(C)OC(=O)N[C@@H](Cc1cnc[nH]1)C(=O)NCc1ccc2c(c1)CN([C@@H]1CCC(=O)NC1=O)C2=O [Compound 29, tert-butyl ((S)-1-(((2-((R)-2,6-dioxopiperidin-3-yl)-1-oxoisoindolin-5-yl)methyl)amino)-3-(1H-imidazol-4-yl)-1-oxopropan-2-yl)carbamate] | – | – | – | – | – | – | C (C represents 0-24% of IKZF1 protein reduction) | – | inhibition at 20 µM (Ikaros (IKZF1); NCI-H929, 20 uM, read-out: % of IKZF1 protein reduction): 0 to 24%
